Legend:
[1] = target: T1, hLIFR and CD130 (IL6ST); LIFR/gp130 (Homo sapiens, UniProt P42702); assay: STAT3; format: cell-based
T1 sequence (P42702 45-1097): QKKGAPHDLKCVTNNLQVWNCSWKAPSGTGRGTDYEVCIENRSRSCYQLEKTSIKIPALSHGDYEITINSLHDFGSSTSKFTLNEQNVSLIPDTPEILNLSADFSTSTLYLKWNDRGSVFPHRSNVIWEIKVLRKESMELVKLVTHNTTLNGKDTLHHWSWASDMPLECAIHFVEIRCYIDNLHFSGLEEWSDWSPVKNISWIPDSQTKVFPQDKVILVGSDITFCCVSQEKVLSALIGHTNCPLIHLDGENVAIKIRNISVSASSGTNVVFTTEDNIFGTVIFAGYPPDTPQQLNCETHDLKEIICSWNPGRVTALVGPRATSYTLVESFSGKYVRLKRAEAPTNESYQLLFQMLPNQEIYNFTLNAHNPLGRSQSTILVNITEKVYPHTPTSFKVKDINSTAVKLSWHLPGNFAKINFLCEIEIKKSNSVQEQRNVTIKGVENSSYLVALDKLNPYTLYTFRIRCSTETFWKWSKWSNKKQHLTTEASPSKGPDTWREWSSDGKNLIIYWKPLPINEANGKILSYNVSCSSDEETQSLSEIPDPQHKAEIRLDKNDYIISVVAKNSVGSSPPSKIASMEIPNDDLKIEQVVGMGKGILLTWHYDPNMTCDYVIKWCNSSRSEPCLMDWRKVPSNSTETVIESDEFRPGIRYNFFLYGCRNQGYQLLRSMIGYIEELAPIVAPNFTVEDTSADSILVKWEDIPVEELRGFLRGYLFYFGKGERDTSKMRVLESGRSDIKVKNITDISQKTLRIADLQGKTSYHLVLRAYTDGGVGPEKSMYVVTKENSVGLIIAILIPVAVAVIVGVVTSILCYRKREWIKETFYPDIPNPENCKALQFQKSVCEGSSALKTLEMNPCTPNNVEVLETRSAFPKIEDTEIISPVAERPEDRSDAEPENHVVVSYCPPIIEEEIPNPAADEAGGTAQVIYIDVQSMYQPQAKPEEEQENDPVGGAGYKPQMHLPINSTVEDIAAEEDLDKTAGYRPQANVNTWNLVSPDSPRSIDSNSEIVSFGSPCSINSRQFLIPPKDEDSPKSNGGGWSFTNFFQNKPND

[2] = target: T2, hLIFR (recombinant human LIFR, His Tag) (Homo sapiens, UniProt P42702); assay: AlphaScreen, inhibition of LIFR/LIF binding
T2 sequence (P42702 45-833 limits assumed): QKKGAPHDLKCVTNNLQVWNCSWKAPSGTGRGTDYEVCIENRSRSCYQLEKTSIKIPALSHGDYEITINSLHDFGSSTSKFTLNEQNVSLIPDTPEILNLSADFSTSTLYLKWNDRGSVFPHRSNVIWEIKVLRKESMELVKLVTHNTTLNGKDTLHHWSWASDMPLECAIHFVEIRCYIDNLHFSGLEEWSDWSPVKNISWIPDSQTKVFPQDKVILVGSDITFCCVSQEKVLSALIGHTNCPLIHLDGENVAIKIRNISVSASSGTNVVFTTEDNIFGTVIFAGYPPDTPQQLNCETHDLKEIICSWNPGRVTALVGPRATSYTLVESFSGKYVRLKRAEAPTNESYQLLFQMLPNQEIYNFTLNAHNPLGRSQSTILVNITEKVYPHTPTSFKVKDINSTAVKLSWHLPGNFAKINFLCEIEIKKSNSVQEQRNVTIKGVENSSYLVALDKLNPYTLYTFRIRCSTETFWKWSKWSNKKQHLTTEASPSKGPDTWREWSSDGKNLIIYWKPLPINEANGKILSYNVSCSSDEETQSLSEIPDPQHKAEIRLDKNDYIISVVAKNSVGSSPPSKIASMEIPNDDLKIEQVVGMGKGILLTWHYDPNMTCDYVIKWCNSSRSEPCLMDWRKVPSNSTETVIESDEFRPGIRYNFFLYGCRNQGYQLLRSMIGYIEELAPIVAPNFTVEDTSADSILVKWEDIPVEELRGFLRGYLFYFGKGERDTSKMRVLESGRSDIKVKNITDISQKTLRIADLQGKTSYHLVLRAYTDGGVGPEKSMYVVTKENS

| IC50 [1] | IC50 [2] | Structure (SMILES) |
| --- | --- | --- |
| ~6.2 µM | 18.4 µM | C[C@H](CCC(=O)O)[C@H]1CC[C@H]2[C@@H]3CC[C@@H]4C[C@H](O)CC[C@]4(C)[C@H]3C[C@H](O)[C@]12C [DCA] |
|  | 50.6 µM | C[C@H](CCC(=O)NCC(=O)O)[C@H]1CC[C@H]2[C@@H]3[C@H](O)C[C@@H]4C[C@H](O)CC[C@]4(C)[C@H]3CC[C@]12C [GCDCA] |
|  | 38 µM | C[C@H](CCC(=O)NCCS(=O)(=O)O)[C@H]1CC[C@H]2[C@@H]3[C@H](O)C[C@@H]4C[C@H](O)CC[C@]4(C)[C@H]3CC[C@]12C [TCDCA] |
| ~9.8 µM | 23 µM | C[C@H](CCC(=O)NCC(=O)O)[C@H]1CC[C@H]2[C@@H]3CC[C@@H]4C[C@H](O)CC[C@]4(C)[C@H]3CC[C@]12C [GLCA] |
